Results: patent publication US12497365B2, “4-pyridinyl formamide compound or derivative thereof, preparation method therefor, herbicidal composition and use thereof” (Qingdao Kingagroot Chemical Compound Co., Ltd., priority 2019, dated 2025)

Key:
Test in all cases: Weeding effect in post-emergence stage
Assay type in all cases: in vivo
Conditions in all cases: active ingredient 2000 g/ha, 3 weeks after application, fresh weight control rate
Chenopodium album = tested on: Chenopodium album
Outline: (§1)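 Post-emergence spray, 2-3 leaf stage; acetone/Tween 80 formulation + methyl oleate EC synergist (1.5 liter/ha); 125-2000 g/ha via spray tower. Greenhouse, 3 wk. Read-out: fresh weight growth control rate, graded by activity level.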

Descurainia sophia = tested on: Descurainia sophia
Outline: as §1

[1] = tested on: Amaranthus retroflexus L.
Outline: as §1

Abutilon theophrasti = tested on: Abutilon theophrasti
Outline: as §1

SMILES | Weeding effect, activity level (growth control rate), Chenopodium album (Chenopodium album) | Weeding effect, activity level (growth control rate), Descurainia sophia (Descurainia sophia) | Weeding effect, activity level (growth control rate), Amaranthus retroflexus L. [1] | Weeding effect, activity level (growth control rate), Abutilon theophrasti (Abutilon theophrasti)
Cn1nnnc1NC(=O)c1ccnc(-c2ccc(F)cc2C(F)(F)F)c1Cl [Compound 1-73] | 5 (Level 5: growth control rate is above 85%) | 5 (Level 5: growth control rate is above 85%) | 5 (Level 5: growth control rate is above 85%) | 5 (Level 5: growth control rate is above 85%)
COc1ncc(-c2nccc(C(=O)Nc3nnnn3C)c2Cl)c(OC)n1 [Compound 1-162] | 5 (Level 5: growth control rate is above 85%) | 5 (Level 5: growth control rate is above 85%) | 5 (Level 5: growth control rate is above 85%) | 5 (Level 5: growth control rate is above 85%)
Cn1nnnc1NC(=O)c1ccnc(-c2ccc(C#N)cc2F)c1Cl [Compound 1-78] | 5 (Level 5: growth control rate is above 85%) | 5 (Level 5: growth control rate is above 85%) | 5 (Level 5: growth control rate is above 85%) | 5 (Level 5: growth control rate is above 85%)
Cn1nnnc1NC(=O)c1ccnc(-c2cc(F)ccc2F)c1Cl [Compound 1-63] | 5 (Level 5: growth control rate is above 85%) | 5 (Level 5: growth control rate is above 85%) | 5 (Level 5: growth control rate is above 85%) | 5 (Level 5: growth control rate is above 85%)
Cn1nnnc1NC(=O)c1ccnc(-c2ccc(S(=O)(=O)N3CCOCC3)cc2)c1Cl [Compound 1-46] | 5 (Level 5: growth control rate is above 85%) | 5 (Level 5: growth control rate is above 85%) | 5 (Level 5: growth control rate is above 85%) | 5 (Level 5: growth control rate is above 85%)
Cn1nnnc1NC(=O)c1ccnc(-c2ccccc2OC(F)(F)F)c1Cl [Compound 1-31] | 5 (Level 5: growth control rate is above 85%) | 5 (Level 5: growth control rate is above 85%) | 5 (Level 5: growth control rate is above 85%) | 5 (Level 5: growth control rate is above 85%)
COc1cccc(-c2nccc(C(=O)Nc3nnnn3C)c2Cl)c1F [Compound 1-72] | 5 (Level 5: growth control rate is above 85%) | 5 (Level 5: growth control rate is above 85%) | 5 (Level 5: growth control rate is above 85%) | 5 (Level 5: growth control rate is above 85%)
Cn1nnnc1NC(=O)c1ccnc(-n2cc(F)cn2)c1Cl [Compound 1-166] | 5 (Level 5: growth control rate is above 85%) | 5 (Level 5: growth control rate is above 85%) | 5 (Level 5: growth control rate is above 85%) | 5 (Level 5: growth control rate is above 85%)
Cn1nnnc1NC(=O)c1ccnc(-c2cnn(C(F)F)c2)c1Cl [Compound 1-174] | 5 (Level 5: growth control rate is above 85%) | 5 (Level 5: growth control rate is above 85%) | 5 (Level 5: growth control rate is above 85%) | 5 (Level 5: growth control rate is above 85%)
Cn1nnnc1NC(=O)c1ccnc(-c2cc(-c3ccccc3)cc(-c3ccccc3)c2)c1Cl [Compound 1-108] | 5 (Level 5: growth control rate is above 85%) | 5 (Level 5: growth control rate is above 85%) | 5 (Level 5: growth control rate is above 85%) | 5 (Level 5: growth control rate is above 85%)
CCCS(=O)(=O)c1nccc(C(=O)Nc2nnnn2C)c1Cl [Compound 1-2071] | 5 (Level 5: growth control rate is above 85%) | 5 (Level 5: growth control rate is above 85%) | 5 (Level 5: growth control rate is above 85%) | 5 (Level 5: growth control rate is above 85%)
Cn1nnnc1NC(=O)c1ccnc(-c2cccc(Cl)c2Cl)c1Cl [Compound 1-87] | 5 (Level 5: growth control rate is above 85%) | 5 (Level 5: growth control rate is above 85%) | 5 (Level 5: growth control rate is above 85%) | 5 (Level 5: growth control rate is above 85%)
Cn1nnnc1NC(=O)c1ccnc(C2CC2)c1Cl [Compound 1-3] | 5 (Level 5: growth control rate is above 85%) | 5 (Level 5: growth control rate is above 85%) | 5 (Level 5: growth control rate is above 85%) | 5 (Level 5: growth control rate is above 85%)
Cn1nnnc1NC(=O)c1ccnc(-c2ccc(C(=O)OC(C)(C)C)cc2)c1Cl [Compound 1-41] | 5 (Level 5: growth control rate is above 85%) | 5 (Level 5: growth control rate is above 85%) | 5 (Level 5: growth control rate is above 85%) | 5 (Level 5: growth control rate is above 85%)
Cn1nnnc1NC(=O)c1ccnc(-c2ccc(F)cc2C#N)c1Cl [Compound 1-83] | 5 (Level 5: growth control rate is above 85%) | 5 (Level 5: growth control rate is above 85%) | 5 (Level 5: growth control rate is above 85%) | 5 (Level 5: growth control rate is above 85%)
Cn1nnnc1NC(=O)c1ccnc(-c2ccc(N3CCOCC3)nc2)c1Cl [Compound 1-146] | 5 (Level 5: growth control rate is above 85%) | 5 (Level 5: growth control rate is above 85%) | 5 (Level 5: growth control rate is above 85%) | 5 (Level 5: growth control rate is above 85%)
CCc1c(C(=O)Nc2nnnn2C)ccnc1-c1ccc(F)cc1 [Compound 1-210] | 5 (Level 5: growth control rate is above 85%) | 5 (Level 5: growth control rate is above 85%) | 5 (Level 5: growth control rate is above 85%) | 5 (Level 5: growth control rate is above 85%)
CC(=O)c1ccc(-c2nccc(C(=O)Nc3nnnn3C)c2Cl)s1 [Compound 1-191] | 5 (Level 5: growth control rate is above 85%) | 5 (Level 5: growth control rate is above 85%) | 5 (Level 5: growth control rate is above 85%) | 5 (Level 5: growth control rate is above 85%)
Cn1nnnc1NC(=O)c1ccnc(-c2cc(C#N)ccn2)c1Cl [Compound 1-122] | 5 (Level 5: growth control rate is above 85%) | 5 (Level 5: growth control rate is above 85%) | 5 (Level 5: growth control rate is above 85%) | 5 (Level 5: growth control rate is above 85%)
Cn1nnnc1NC(=O)c1ccnc(-c2cc(Cl)cc(Cl)c2)c1Cl [Compound 1-89] | 5 (Level 5: growth control rate is above 85%) | 5 (Level 5: growth control rate is above 85%) | 5 (Level 5: growth control rate is above 85%) | 5 (Level 5: growth control rate is above 85%)
COc1cc(F)cc(-c2nccc(C(=O)Nc3nnnn3C)c2Cl)c1 [Compound 1-71] | 5 (Level 5: growth control rate is above 85%) | 5 (Level 5: growth control rate is above 85%) | 5 (Level 5: growth control rate is above 85%) | 5 (Level 5: growth control rate is above 85%)
